What is called IC50 is the midpoint of a concentration-inhibition curve. For orientation: IC95 means the concentration needed for an effect of 95%.

Data on 16 compounds can be found in patent US9187415B2, “Sulfonamides as HIV protease inhibitors” (Merck Canada Inc., priority 2010, dated 2015).

SMILES strings stand for the structures. Like-named read-outs stand apart in the source and are kept apart here.

The target of assay [1] is T1, HIV-1 protease (wild type) (Human immunodeficiency virus type 1 group M subtype B, UniProt P04585).
T1 construct: made in house; host or cells: Escherichia coli
Briefly: Protease Inhibition Assay (Pepcleave), inhibition of microbial expressed HIV protease. Type of assay: biochemical. Here is the method: Assay for Inhibition of Microbial Expressed HIV Protease
Inhibition studies of the reaction of the protease (which was expressed in Eschericia coli) with a peptide substrate [Val-Ser-Gln-Asn-(betanaphtyl)Ala-Pro-Ile-Val]. The inhibitor is first preincubated with the HIV-1 protease (wild type) enzyme in assay buffer (50 mM sodium acetate, pH 5.5, 100 mM NaCl, and 0.1% BSA) for 30 minutes at room temperature. Substrate is added to 400 micromolar in a total volume of 80 microliters containing 10 picomolar HIV-1 protease and the reaction is incubated for 1 hour at 30° C. The reaction is quenched with the addition of 120 microliters of 10% phosphoric acid. The product formation is determined after separation of product and substrate on a Zorbax Eclipse XDB-C18 column connected to an Agilent 1100 high performance liquid chromatography system with fluorescence detection (excitation 270 nanometer and emission 330 nanometer). Alternatively, the inhibitor is preincubated with enzyme and substrate as described above, but in a total volume of 20 microliters containing 20 picomolar HIV-1 protease and the reaction is incubated for 1 hour at 30° C. The reaction is quenched with the addition of 30 microliters of 1 micromolar indinavir (indinavir is also used as an internal standard), and the product formation is determined after separation of product and substrate on a Zorbax Eclipse XDB-C18 column connected to an API 4000 mass spectrometer (Applied Biosystems) with multiple reaction monitoring (transitions were 644.5/428.9 and 615.4/422.2 (M1/M3) for product and indinavir respectively). The extent of inhibition of the reaction is determined from the peak area of the products. HPLC of the products, independently synthesized, provided quantitation standards and confirmation of the product composition.
Protease Inhibition Assay (“Pepcleave”) data were collected based on the wild-type HIV-1 protease enzyme. The assay monitors the cleavage of a 8-mer peptide (VSQN[β-Nal]PIV) where the tyrosine at P1 position is replaced by β-Naphthyl-alanine. Upon cleavage of the peptide by HIV-1 protease, the product is separated from substrate by HPLC column and detected at Ex.=270 nm/Em=330 nm.

Assay [2] concerns human immunodeficiency virus type 1. Briefly: Acute Infection Assay (Spread). The assay is classed as cell-based, HIV-1. The note with it: Human immunodeficiency virus 1; 10% FBS; mean of at least two independent experiments; read-out: Spread IC95. The text has this: Acute Infection Assay (“Spread”) data were generated in 10% FBS, and according to the methods disclosed by J. P. Vacca et al, “L-735,524: An orally bioavailable human immunodeficiency virus type 1 protease inhibitor,” Proc. Nati. Acad. Sci. USA, Vol. 91, pp. 4096-4100 (April 1994).

The mark [3] stands for this setting: wild-type HIV-1 protease, mean of at least two independent experiments, read-out: Pepcleave Enzyme inhibition IC50.

The compound `COC(=O)N[C@H](C(=O)Nc1ccccc1CC[C@@H](CO)N(C(C)C)S(=O)(=O)c1ccc(N)cc1)C(c1ccccc1)c1ccccc1` [Example 2, N-{2-[(3S)-3-{[(4-aminophenyl)sulfonyl](propan-2-yl)amino}-4-hydroxybutyl]phenyl}-Nα-(methoxycarbonyl)-β-phenyl-L-phenylalaninamide] yielded an IC50 in assay [1] of 1.2 nM. Also, the IC95 in assay [2] stood at 919 nM.

Consider `[2H]C([2H])([2H])C([2H])(C([2H])([2H])[2H])C([2H])([2H])N([C@H](CO)CSc1ccncc1NC(=O)[C@@H](NC(=O)OC)C(c1ccccc1)c1ccccc1)S(=O)(=O)c1ccc2ncsc2c1` [Example 25, N-[4-({(2R)-2-[(1,3-benzothiazol-6-ylsulfonyl)(2-methylpropyld7)amino)-3-hydroxypropyl}sulfanyl)pyridin-3-yl]-Nα-(methoxycarbonyl)-β-phenyl-L-phenylalaninamide], for which the IC50 in assay [1] (setting [3]) was found to be 4.8 nM. Moreover, the IC95 in assay [2] amounted to 1150 nM.

On to `COC(=O)N[C@H](C(=O)Nc1ccccc1CC[C@@H](CO)N(CC1CC(F)(F)C1)S(=O)(=O)c1ccc2ncsc2c1)C(c1ccccc1)c1ccccc1` [Example 12, N-{2-[(3S)-3-{(1,3-benzothiazol-6-ylsulfonyl)[(3,3-difluorocyclobutyl)methyl]amino}-4-hydroxybutyl]phenyl}-Nα-(methoxycarbonyl)-β-phenyl-L-phenylalaninamide], for which the concentration for half-maximal inhibition (IC50) in assay [1] (setting [3]) was determined as 0.9 nM. Also, the IC95 in assay [2] was found to be 1530 nM.

Regarding `COC(=O)N[C@@H](Cc1ccccc1Cl)C(=O)Nc1ccccc1CC[C@@H](CO)N(Cc1cn[nH]c1)S(=O)(=O)c1ccc(N)cc1` [Example 15, N-{2[(3S)-3-{[(4-aminophenyl)sulfonyl](1H-pyrazol-4-ylmethyl)amino}-4-hydroxybutyl]phenyl}-2-chloro-Nα-(methoxycarbonyl)-L-phenylalaninamide], in assay [1] (setting [3]), the half-maximal inhibitory concentration (IC50) was determined as 1.8 nM. In addition, in assay [2], the IC95 was found to be 2440 nM.

In the case of `COC(=O)N[C@H](C(=O)Nc1cccc(C[C@@H](CO)N(CCC(C)C)S(=O)(=O)c2ccc(N)cc2)c1)C(c1ccccc1)c1ccccc1` [Example 31, N-{3-[(2S)-2-{[(4-aminophenyl)sulfonyl](3-methylbutyl)amino}-3-hydroxypropyl]phenyl}-Nα-(methoxycarbonyl)-β-phenyl-L-phenylalaninamide], in assay [1] (setting [3]), the concentration for half-maximal inhibition (IC50) is 3.7 nM. The IC95 in assay [2] was found to be 1260 nM.

Regarding `COC(=O)N[C@H](C(=O)Nc1ccccc1CC[C@@H](CO)N(Cc1cn[nH]c1)S(=O)(=O)c1ccc(N)cc1)C(c1ccccc1)c1ccccc1` [Example 6, N-{2-[(3S)-3-{[(4-aminophenyl)sulfonyl](1H-pyrazol-4-ylmethyl)amino}-4-hydroxybutyl]phenyl}-Nα-(methoxycarbonyl)-β-phenyl-L-phenylalaninamide], it took 0.07 nM to reach half-maximal inhibition in assay [1] (IC50). In addition, the IC95 in assay [2] was 2340 nM.

As for `COC(=O)N[C@H](C(=O)Nc1ccccc1CC[C@@H](CO)N(Cc1cncnc1C)S(=O)(=O)c1ccc(N)cc1)C(c1ccccc1)c1ccccc1` [Example 5, N-{2-[(3S)-3-{[(4-aminophenyl)sulfonyl][(4-methylpyrimidin-5-yl)methyl]amino}-4-hydroxybutyl]phenyl}-Nα-(methoxycarbonyl)-β-phenyl-L-phenylalaninamide], the IC50 in assay [1] came to 0.7 nM. Besides, in assay [2], the IC95 amounted to 1190 nM.

Consider `COC(=O)N[C@H](C(=O)Nc1c(SC[C@@H](CO)N(CCC(C)C)S(=O)(=O)c2ccc(N)cc2)cc[nH]c1=O)C(c1ccccc1)c1ccccc1` [Example 23, N-(4-{[(2R)-2-{[(4-aminophenyl)sulfonyl](3-methylbutyl)amino}-3-hydroxypropyl]sulfanyl}-2-oxo-1,2-dihydropyridin-3-yl)-Nα-(methoxycarbonyl)-β-phenyl-L-phenyl alaninamide], for which, in assay [1] (setting [3]), the IC50 amounted to 0.06 nM. Besides, in assay [2], the IC95 came out at 2500 nM.

In the case of `COC(=O)N[C@H](C(=O)Nc1ccccc1[S+]([O-])C[C@@H](CO)N(CCC(C)C)S(=O)(=O)c1ccc(N)cc1)C(c1ccccc1)c1ccccc1` (stereo partly drawn) [Example 30, N-(2-{[(2R)-2-{[(4-aminophenyl)sulfonyl](3-methylbutyl)amino}-3-hydroxypropyl]sulfinyl}phenyl)-Nα-(methoxycarbonyl)-β-phenyl-L-phenyl alaninamide], in assay [1] (setting [3]), the IC50 came out at 2.1 nM. Further, the IC95 in assay [2] stood at 1780 nM.

Consider `COC(=O)N[C@H](C(=O)Nc1cnccc1SC[C@@H](CO)N(Cc1cn(C)nc1C)S(=O)(=O)c1ccc2ncsc2c1)C(c1ccccc1)c1ccccc1` [Example 26, N-(4-{[(2R)-2-{(1,3-benzothiazol-6-ylsulfonyl)[(1,3-dimethyl-1H-pyrazol-4-yl)methyl]amino)-3-hydroxypropyl)sulfanyl}pyridin-3-yl)-Nα-(methoxycarbonyl)-β-phenyl-L-phenylalaninamide], for which the IC50 in assay [1] (setting [3]) turned out to be 0.4 nM. In addition, the 95% effect concentration (IC95) in assay [2] came to 1260 nM.

As for `COC(=O)N[C@H](C(=O)Nc1ccccc1CC[C@@H](CO)N(Cc1cnoc1)S(=O)(=O)c1ccc(N)cc1)C(c1ccccc1)c1ccccc1` [Example 4], the half-inhibitory concentration (IC50) in assay [1] worked out at 0.2 nM. Further, the IC95 in assay [2] turned out to be 838 nM.

`COC(=O)N[C@H](C(=O)Nc1cnccc1SC[C@@H](CO)N(Cc1cnoc1)S(=O)(=O)c1ccc2ncsc2c1)C(c1ccccc1)c1ccccc1` [Example 27, N-[4-({(2R)-2-[(1,3-benzothiazol-6-ylsulfonyl)(isoxazol-4-ylmethyl)amino]-3-hydroxypropyl}sulfanyl)pyridin-3-yl]-Nα-(methoxycarbonyl)-β-phenyl-L-phenylalaninamide]: in assay [1] (setting [3]), the 50% inhibitory concentration (IC50) was 6.9 nM. Further, the concentration for an effect of 95% (IC95) in assay [2] is 1500 nM.

For `COC(=O)N[C@H](C(=O)Nc1ccccc1CC[C@@H](CO)N(CCC(C)C)S(=O)(=O)c1ccc2ncsc2c1)C(c1ccccc1)c1ccccc1` [Example 9, N-(2-{(3S)-3-[(1,3-benzothiazol-6-ylsulfonyl)(3-methylbutyl)amino]-4-hydroxybutyl}phenyl)-Nα-(methoxycarbonyl)-β-phenyl-L-phenylalaninamide], in assay [1], half-maximal inhibition (IC50) was put at 0.3 nM. For the same compound, the concentration for an effect of 95% (IC95) in assay [2] is 957 nM.

`COC(=O)N[C@@H](Cc1ccccc1Cl)C(=O)Nc1ccccc1CC[C@@H](CO)N(CCC(C)C)S(=O)(=O)c1ccc(N)cc1` [Example 14, N-{2-[(3S)-3-{[(4-aminophenyl)sulfonyl](3-rnethylbutyl)amino}-4-hydroxybutyl]phenyl}-2-chloro-Nα-(methoxycarbonyl)-L-phenylalaninamide]: the half-inhibitory concentration (IC50) in assay [1] (setting [3]) is 1.2 nM. For the same compound, the 95% effect concentration (IC95) in assay [2] was determined as 1180 nM.

On to `COC(=O)N[C@H](C(=O)Nc1cc(F)ccc1CC[C@@H](CO)N(CC1CC(F)(F)C1)S(=O)(=O)c1ccc2ncsc2c1)C(c1ccccc1)c1ccccc1` [Example 13, N-{2-[(3S)-3-{(1,3-benzothiazol-6-ylsulfonyl)[(3,3-difluorocyclobutyl)methyl]amino}-4-hydroxybutyl]-5-fluorophenyl}-Nα-(methoxycarbonyl)-β-phenyl-L-phenylalaninamide], for which the IC50 in assay [1] (setting [3]) is 1.9 nM. In addition, in assay [2], the concentration for an effect of 95% (IC95) came out at 1180 nM.

`COC(=O)N[C@H](C(=O)Nc1cnccc1SC[C@@H](CO)N(CC(C)C)S(=O)(=O)c1ccc2ncsc2c1)C(c1ccccc1)c1ccccc1` [Example 24, N-[4-({(2R)-2-[(1,3-benzothiazol-6-ylsulfonyl)(2-methylpropyl)amino]-3-hydroxypropyl}sulfanyl)pyridin-3-yl]-Nα-(methoxycarbonyl)-β-phenyl-L-phenylalaninamide]: the half-inhibitory concentration (IC50) in assay [1] (setting [3]) came out at 4.2 nM. Moreover, the IC95 in assay [2] was 1120 nM.
